Source: patent US20210215714A1, “COMPLEMENT ALTERNATIVE PATHWAY-ASSOCIATED NEPHROPATHY BIOMARKERS” (Achillion Pharmaceuticals, Inc., priority 2018, published 2021)

Test system: Ba
Experiment: Phase 2a study: urinary Ba (MicroVue Ba Enzyme Immunoassay)
Type: in vivo, human
[1] = Patient A, 100 mg TID, Day 1/0 Hour
[2] = Patient A, 100 mg TID, Day 7/0 Hour
[3] = Patient A, 100 mg TID, Day 15 Taper
[4] = Patient A, 100 mg TID, Day 16 Taper
[5] = Patient A, 100 mg TID, Day 17 Taper
[6] = Patient A, 100 mg TID, Day 21 Taper
[7] = Patient A, 100 mg TID, Follow-Up Day 24
[8] = Patient A, 100 mg TID, Follow-Up Day 28
[9] = Patient A, 100 mg TID, Follow-Up Day 49
[10] = Patient B, 100 mg TID, Day 1/0 Hour
[11] = Patient B, 100 mg TID, Day 7/0 Hour
[12] = Patient B, 100 mg TID, Day 15 Taper
[13] = Patient B, 100 mg TID, Day 16 Taper
[14] = Patient B, 100 mg TID, Day 17 Taper
[15] = Patient B, 100 mg TID, Day 21 Taper
[16] = Patient B, 100 mg TID, Follow-Up Day 24
[17] = Patient B, 100 mg TID, Follow-Up Day 28
[18] = Patient B, 100 mg TID, Follow-Up Day 49
[19] = Patient C, 200 mg TID, Day 1/0 Hour
[20] = Patient C, 200 mg TID, Day 7/0 Hour
[21] = Patient C, 200 mg TID, Day 15 Taper
[22] = Patient C, 200 mg TID, Day 16 Taper
[23] = Patient C, 200 mg TID, Day 17 Taper
[24] = Patient C, 200 mg TID, Day 21 Taper
[25] = Patient C, 200 mg TID, Follow-Up Day 24
[26] = Patient C, 200 mg TID, Follow-Up Day 28
[27] = Patient C, 200 mg TID, Follow-Up Day 49
[28] = Patient D, 200 mg TID, Day 1/0 Hour
[29] = Patient D, 200 mg TID, Day 7/0 Hour
[30] = Patient D, 200 mg TID, Day 15 Taper
[31] = Patient D, 200 mg TID, Day 17 Taper
[32] = Patient D, 200 mg TID, Day 21 Taper

## CC(=O)c1nn(CC(=O)N2C[C@H](F)C[C@H]2C(=O)Nc2cccc(Br)n2)c2ccc(-c3cnc(C)nc3)cc12 [Compound 1, (2S,4R)-1-(2-(3-acetyl-5-(2-methylpyrimidin-5-yl)-1H-indazol-1-yl)acetyl)-N-(6-bromopyridin-2-yl)-4-fluoropyrrolidine-2-carboxamide]
[1]
  Ba/ALB: 22.1 ng/mg
  Ba/Cr: 5.7 µg/mmol
  Urine Ba: 47.1 ng/mL
Patient A, 100 mg TID, Day 4
  Ba/ALB: 8.4 ng/mg
  Ba/Cr: 1.8 µg/mmol
  Urine Ba: 14.7 ng/mL
[2]
  Ba/ALB: 7.5 ng/mg
  Ba/Cr: 1.8 µg/mmol
  Urine Ba: 11.6 ng/mL
Patient A, 100 mg TID, Day 10
  Ba/ALB: 6.1 ng/mg
  Ba/Cr: 1.4 µg/mmol
  Urine Ba: 8.6 ng/mL
[3]
  Ba/ALB: 11.4 ng/mg
  Ba/Cr: 1.6 µg/mmol
  Urine Ba: 11.9 ng/mL
[4]
  Ba/ALB: 16.3 ng/mg
  Ba/Cr: 2.3 µg/mmol
  Urine Ba: 17.4 ng/mL
[5]
  Ba/ALB: 18.6 ng/mg
  Ba/Cr: 2.1 µg/mmol
  Urine Ba: 21.2 ng/mL
[6]
  Ba/ALB: 65.5 ng/mg
  Ba/Cr: 9.2 µg/mmol
  Urine Ba: 79.8 ng/mL
[7]
  Ba/ALB: 83.3 ng/mg
  Ba/Cr: 11.5 µg/mmol
  Urine Ba: 115.3 ng/mL
[8]
  Ba/ALB: 77.1 ng/mg
  Ba/Cr: 10.2 µg/mmol
  Urine Ba: 100.8 ng/mL
[9]
  Ba/ALB: 26.5 ng/mg
  Ba/Cr: 3.8 µg/mmol
  Urine Ba: 16.5 ng/mL
Patient A, 100 mg TID, Screen
  Ba/ALB: 15.0 ng/mg
  Ba/Cr: 3.4 µg/mmol
  Urine Ba: 28.3 ng/mL
[10]
  Ba/ALB: 225 ng/mg
  Ba/Cr: 129.9 µg/mmol
  Urine Ba: 793 ng/mL
Patient B, 100 mg TID, Day 4
  Ba/ALB: 47 ng/mg
  Ba/Cr: 12.4 µg/mmol
  Urine Ba: 158 ng/mL
[11]
  Ba/ALB: 41 ng/mg
  Ba/Cr: 10.2 µg/mmol
  Urine Ba: 149 ng/mL
Patient B, 100 mg TID, Day 10
  Ba/ALB: 28 ng/mg
  Ba/Cr: 7.0 µg/mmol
  Urine Ba: 53 ng/mL
Patient B, 100 mg TID, Day 14
  Ba/ALB: 54 ng/mg
  Ba/Cr: 14.2 µg/mmol
  Urine Ba: 238 ng/mL
[12]
  Ba/ALB: 58 ng/mg
  Ba/Cr: 19.0 µg/mmol
  Urine Ba: 209 ng/mL
[13]
  Ba/ALB: 77 ng/mg
  Ba/Cr: 25.2 µg/mmol
  Urine Ba: 318 ng/mL
[14]
  Ba/ALB: 55 ng/mg
  Urine Ba: 164 ng/mL
[15]
  Ba/ALB: 43 ng/mg
  Ba/Cr: 15.9 µg/mmol
  Urine Ba: 129 ng/mL
[16]
  Ba/ALB: 87 ng/mg
  Ba/Cr: 41.1 µg/mmol
  Urine Ba: 251 ng/mL
[17]
  Ba/ALB: 65 ng/mg
  Ba/Cr: 24.6 µg/mmol
  Urine Ba: 175 ng/mL
[18]
  Ba/ALB: 771 ng/mg
  Ba/Cr: 108.0 µg/mmol
  Urine Ba: 1727 ng/mL
Patient B, 100 mg TID, Screen
  Ba/ALB: 97 ng/mg
  Ba/Cr: 47.1 µg/mmol
  Urine Ba: 348 ng/mL
[19]
  Ba/ALB: 2.9 ng/mg
  Ba/Cr: 0.168 µg/mmol
  Urine Ba: 0.30 ng/mL
Patient C, 200 mg TID, Day 4
  Ba/ALB: 1.5 ng/mg
  Ba/Cr: 0.040 µg/mmol
  Urine Ba: 0.08 ng/mL
[20]
  Ba/ALB: 2.6 ng/mg
  Ba/Cr: 0.056 µg/mmol
  Urine Ba: 0.21 ng/mL
Patient C, 200 mg TID, Day 10
  Ba/ALB: 1.5 ng/mg
  Ba/Cr: 0.053 µg/mmol
  Urine Ba: 0.08 ng/mL
Patient C, 200 mg TID, Day 14
  Ba/ALB: 2.2 ng/mg
  Ba/Cr: 0.068 µg/mmol
  Urine Ba: 0.09 ng/mL
[21]
  Ba/ALB: 2.2 ng/mg
  Ba/Cr: 0.099 µg/mmol
  Urine Ba: 0.15 ng/mL
[22]
  Ba/ALB: 3.0 ng/mg
  Ba/Cr: 0.078 µg/mmol
  Urine Ba: 0.15 ng/mL
[23]
  Ba/ALB: 1.8 ng/mg
  Ba/Cr: 0.058 µg/mmol
  Urine Ba: 0.13 ng/mL
[24]
  Ba/ALB: 7.5 ng/mg
  Ba/Cr: 0.175 µg/mmol
  Urine Ba: 0.49 ng/mL
[25]
  Ba/ALB: 2.3 ng/mg
  Ba/Cr: 0.075 µg/mmol
  Urine Ba: 0.14 ng/mL
[26]
  Ba/ALB: 4.5 ng/mg
  Ba/Cr: 0.213 µg/mmol
  Urine Ba: 0.62 ng/mL
[27]
  Ba/ALB: 1.7 ng/mg
  Ba/Cr: 0.036 µg/mmol
  Urine Ba: 0.16 ng/mL
Patient C, 200 mg TID, Screen
  Ba/ALB: 1.5 ng/mg
  Ba/Cr: 0.065 µg/mmol
  Urine Ba: 0.12 ng/mL
[28]
  Ba/ALB: 10.9 ng/mg
  Ba/Cr: 2.5 µg/mmol
  Urine Ba: 14.2 ng/mL
Patient D, 200 mg TID, Day 4
  Ba/ALB: 3.5 ng/mg
  Ba/Cr: 1.0 µg/mmol
  Urine Ba: 4.4 ng/mL
[29]
  Ba/ALB: 6.5 ng/mg
  Ba/Cr: 2.1 µg/mmol
  Urine Ba: 2.4 ng/mL
Patient D, 200 mg TID, Day 10
  Ba/ALB: 2.8 ng/mg
  Ba/Cr: 1.8 µg/mmol
  Urine Ba: 1.8 ng/mL
Patient D, 200 mg TID, Day 14
  Ba/ALB: 4.6 ng/mg
  Ba/Cr: 1.3 µg/mmol
  Urine Ba: 4.1 ng/mL
[30]
  Ba/ALB: 4.3 ng/mg
  Ba/Cr: 2.0 µg/mmol
  Urine Ba: 8.4 ng/mL
[31]
  Ba/ALB: 2.9 ng/mg
  Ba/Cr: 1.7 µg/mmol
  Urine Ba: 5.0 ng/mL
[32]
  Ba/ALB: 7.8 ng/mg
  Ba/Cr: 4.4 µg/mmol
